This note sets out measurements from ChEMBL document CHEMBL1629569, “Widespread dissemination of aminoglycoside resistance genes armA and rmtB in Klebsiella pneumoniae isolates in Taiwan producing CTX-M-type extended-spectrum beta-lactamases” (2009).

In brackets after ≈: the same amount, converted by molar mass.

What all share (assay type): functional
The subject of experiment [1] is Klebsiella pneumoniae. Kind of experiment: Antimicrobial activity against ESBL-producing Klebsiella pneumoniae clinical isolate by broth microdilution method. (In broth dilution the organism is exposed to a series of concentrations in liquid medium.)
For experiment [2], the system named is Klebsiella pneumoniae. The experiment is described as follows: Antimicrobial activity against ESBL-producing Klebsiella pneumoniae clinical isolate assessed as susceptible isolates.
Experiment [3] deals with Klebsiella pneumoniae. Kind of experiment: Antimicrobial activity against ESBL-producing Klebsiella pneumoniae clinical isolate assessed as resistant isolates.

`CO/N=C(\C(=O)N[C@@H]1C(=O)N2C(C(=O)O)=C(COC(C)=O)CS[C@H]12)c1csc(N)n1` [CEFOTAXIME]: in the experiment on Klebsiella pneumoniae [1], the MIC50 (in general, an inhibitory concentration at the 50% level, which refers to growth in some studies and to a panel of isolates in others) turned out to be 64 µg/mL (≈ 141 µM); the MIC90 (commonly an inhibitory concentration at the 90% level, which refers to growth in some studies and to a panel of isolates in others) came out at 64 µg/mL (≈ 141 µM). The Activity in the experiment with Klebsiella pneumoniae [2] is 12 isolates. Further, the Activity in the experiment with Klebsiella pneumoniae [3] is 146 isolates.

Consider `CC(C)(O/N=C(\C(=O)N[C@@H]1C(=O)N2C(C(=O)[O-])=C(C[n+]3ccccc3)CS[C@H]12)c1csc(N)n1)C(=O)O` [CEFTAZIDIME], for which, in the experiment with Klebsiella pneumoniae [1], the MIC50 was determined as 32 µg/mL (≈ 58.5 µM) and the MIC90 worked out at 32 µg/mL (≈ 58.5 µM). Besides, the Activity in the experiment with Klebsiella pneumoniae [2] is 38 isolates. For the same compound, in the experiment with Klebsiella pneumoniae [3], the Activity is 158 isolates.

Consider `CC1(C)S[C@@H]2[C@H](NC(=O)[C@H](N)c3ccccc3)C(=O)N2[C@H]1C(=O)O` [AMPICILLIN], for which the MIC50 in the experiment with Klebsiella pneumoniae [1] is greater than 64 µg/mL. In the experiment on Klebsiella pneumoniae [1], the MIC90 is greater than 64 µg/mL. Besides, the Activity amounted to 0 isolates in the experiment on Klebsiella pneumoniae [2] and 235 isolates in the experiment with Klebsiella pneumoniae [3].

For `C[C@@H](O)[C@H]1C(=O)N2C(C(=O)O)=C(SCCNC=N)C[C@H]12` [IMIPENEM ANHYDROUS], in the experiment with Klebsiella pneumoniae [1], the MIC50 was determined as 0.25 µg/mL (≈ 0.835 µM) and the MIC90 turned out to be 2 µg/mL (≈ 6.68 µM). The Activity in the experiment with Klebsiella pneumoniae [2] was 230 isolates. Moreover, the Activity in the experiment on Klebsiella pneumoniae [3] came out at 2 isolates.

In the experiment with Klebsiella pneumoniae [1], GENTAMICIN came in with an MIC50 of 16 µg/mL and an MIC90 of 16 µg/mL. For the same compound, the Activity in the experiment on Klebsiella pneumoniae [2] was found to be 21%.

In the experiment with Klebsiella pneumoniae [1], `CO[C@@]1(NC(=O)Cc2cccs2)C(=O)N2C(C(=O)O)=C(COC(N)=O)CS[C@@H]21` [CEFOXITIN] came in with an MIC50 of 16 µg/mL (≈ 37.4 µM) and an MIC90 of 32 µg/mL (≈ 74.9 µM). The Activity with Klebsiella pneumoniae [2] was found to be 102 isolates. Further, the Activity in the experiment with Klebsiella pneumoniae [3] amounted to 95 isolates.

Turning to `NCC[C@H](O)C(=O)N[C@@H]1C[C@H](N)[C@@H](O[C@H]2O[C@H](CN)[C@@H](O)[C@H](O)[C@H]2O)[C@H](O)[C@H]1O[C@H]1O[C@H](CO)[C@@H](O)[C@H](N)[C@H]1O` [AMIKACIN], in the experiment on Klebsiella pneumoniae [1], the MIC50 worked out at 32 µg/mL (≈ 54.6 µM) and the MIC90 was determined as 64 µg/mL (≈ 109 µM). For the same compound, the Activity in the experiment with Klebsiella pneumoniae [2] stood at 106 isolates. The Activity in the experiment on Klebsiella pneumoniae [3] is 102 isolates.
